Reference: the supplement of paper PMC11061612

Experiments:
Assay in all cases: Bliss excess, mean over the matrix (fraction); higher = more synergy
[1] = system: Ca-Ski (Cervical Carcinoma)
In short: (§1)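 Cell lines in DMEM/F12 or RPMI with 10% FBS were plated in 1536-well plates, held 24 hours at 37°C, 5% CO2, then given two-drug dose matrices for 72 hours (DMSO typically 0.2%). Viability was read by CellTiter-Glo 2.0 luminescence and scaled as inhibition from 0 (vehicle wells) to 1 (blank wells). Combination Emax is the second-highest inhibition in the matrix; Bliss excess is observed combination effect minus expected EA + EB − EA·EB, EA and EB being single-agent effects.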

[2] = system: ALL-SIL (T-Lymphoblastic Leukemia)
In short: as §1

[3] = system: NCI-H522 (Lung Adenocarcinoma)
In short: as §1

EW-1 (Ewing's Sarcoma) = system: EW-1 (Ewing's Sarcoma)
In short: as §1

[4] = system: HCC2998 (Colorectal Carcinoma)
In short: as §1

[5] = system: KOPN-8 (B-Lymphoblastic Leukemia)
In short: as §1

[6] = system: LC-1-sq (Squamous Cell Lung Carcinoma)
In short: as §1

[7] = system: CADO-ES1 (Ewing's Sarcoma)
In short: as §1

[8] = system: MDA-MB-453 (Breast Carcinoma)
In short: as §1

[9] = system: HAL-01 (B-Lymphoblastic Leukemia)
In short: as §1

[10] = system: NCI-H2122 (Lung Adenocarcinoma)
In short: as §1

[11] = system: EFO-21 (Ovarian Carcinoma)
In short: as §1

SK-N-AS (Neuroblastoma) = system: SK-N-AS (Neuroblastoma)
In short: as §1

[12] = system: OACM5-1 (Esophageal Adenocarcinoma)
In short: as §1

[13] = system: NCI-H1838 (Lung Adenocarcinoma)
In short: as §1

[14] = system: OE33 (Esophageal Adenocarcinoma)
In short: as §1

[15] = system: DU-145 (Prostate Carcinoma)
In short: as §1

[16] = system: ME-180 (Cervical Carcinoma)
In short: as §1

[17] = system: SW982 (Other Solid Carcinomas)
In short: as §1

[18] = system: MOG-G-UVW (Low Grade Glioma)
In short: as §1

| SMILES | Bliss excess [1] | Bliss excess [2] | Bliss excess [3] | Bliss excess (EW-1 (Ewing's Sarcoma)) | Bliss excess [4] | Bliss excess [5] | Bliss excess [6] | Bliss excess [7] | Bliss excess [8] | Bliss excess [9] | Bliss excess [10] | Bliss excess [11] | Bliss excess (SK-N-AS (Neuroblastoma)) | Bliss excess [12] | Bliss excess [13] | Bliss excess [14] | Bliss excess [15] | Bliss excess [16] | Bliss excess [17] | Bliss excess [18] |
| --- | --- | --- | --- | --- | --- | --- | --- | --- | --- | --- | --- | --- | --- | --- | --- | --- | --- | --- | --- | --- |
| CC(=O)Nc1cccc(-n2c(=O)n(C3CC3)c(=O)c3c(Nc4ccc(I)cc4F)n(C)c(=O)c(C)c32)c1 [Trametinib] + Cc1nc(-c2cn3c(n2)-c2ccc(-c4cnn(C(C)(C)C(N)=O)c4)cc2OCC3)n(C(C)C)n1 [Taselisib] (first compound max 1 µM, 7x7, partner max 10 µM) | 0.184 | 0.267 | 0.0504 | 0.038 | 0.0408 | -0.101 | 0.24 | -0.0253 | -0.0279 | 0.147 | 0.0862 | 0.048 | 0.0104 | 0.03 | 0.0104 | 0.17 | 0.0241 | 0.0713 | 0.0666 | -0.0446 |
| CC1(C)CCC(CN2CCN(c3ccc(C(=O)NS(=O)(=O)c4ccc(NCC5CCOCC5)c([N+](=O)[O-])c4)c(Oc4cnc5[nH]ccc5c4)c3)CC2)=C(c2ccc(Cl)cc2)C1 [Venetoclax] + C1CN(CCC1(C(=O)N[C@@H](CCO)C2=CC=C(C=C2)Cl)N)C3=NC=NC4=C3C=CN4 [Capivasertib] (first compound max 1 µM, 7x7, partner max 3 µM) | -0.0153 | -0.0261 | -0.0292 | -0.0019 | -0.0133 | -0.0009 | -0.0136 | -0.0206 | -0.0022 | -0.0206 | 0.0256 | -0.131 | -0.0237 | 0.0191 | -0.0097 | -0.0059 | -0.0493 | -0.0015 | -0.0523 | -0.0404 |
| CC1(C)CCC(CN2CCN(c3ccc(C(=O)NS(=O)(=O)c4ccc(NCC5CCOCC5)c([N+](=O)[O-])c4)c(Oc4cnc5[nH]ccc5c4)c3)CC2)=C(c2ccc(Cl)cc2)C1 [Venetoclax] + C=CCn1c(=O)c2cnc(Nc3ccc(N4CCN(C)CC4)cc3)nc2n1-c1cccc(C(C)(C)O)n1 [AZD1775] (first compound max 1 µM, partner max 1 µM) | 0.0449 | 0.0792 | 0.0162 | -0.0191 | -0.0423 | -0.0079 | -0.0039 | -0.0626 | 0.0707 | 0.0564 | -0.0409 | 0.0233 | -0.07 | -0.056 | -0.0334 | -0.0144 | -0.0098 | -0.0001 | 0.018 | 0.0612 |
| CC1(C)CCC(CN2CCN(c3ccc(C(=O)NS(=O)(=O)c4ccc(NCC5CCOCC5)c([N+](=O)[O-])c4)c(Oc4cnc5[nH]ccc5c4)c3)CC2)=C(c2ccc(Cl)cc2)C1 [Venetoclax] + CCN(CCO)CCCOc1ccc2c(Nc3cc(CC(=O)Nc4cccc(F)c4)[nH]n3)ncnc2c1 [AZD2811] (first compound max 1 µM, 7x7, partner max 1 µM) | 0.0738 | -0.0059 | 0.0172 | 0.0317 | -0.0403 | 0.0169 | -0.0099 | 0.0054 | -0.0169 | -0.0133 | -0.0579 | -0.0263 | -0.0071 | -0.0406 | 0.0204 | -0.0188 | -0.0375 | 0.0083 | -0.0257 | -0.0186 |
| CC1(C)CCC(CN2CCN(c3ccc(C(=O)NS(=O)(=O)c4ccc(NCC5CCOCC5)c([N+](=O)[O-])c4)c(Oc4cnc5[nH]ccc5c4)c3)CC2)=C(c2ccc(Cl)cc2)C1 [Venetoclax] + CN(C)CCCOc1ccc(-c2ccc3ncc4c(c3c2)n(C2CCOCC2)c(=O)n4C)cn1 [AZD0156] (first compound max 1 µM, 7x7, partner max 1 µM) | 0.0221 | -0.0012 | -0.0134 | 0.0002 | -0.0292 | -0.0498 | -0.0007 | -0.0204 | -0.0225 | 0.0439 | 0.0112 | -0.0375 | -0.0469 | -0.0017 | 0.0303 | -0.033 | -0.0261 | 0.0092 | -0.086 | 0.0408 |
| CC1(C)CCC(CN2CCN(c3ccc(C(=O)NS(=O)(=O)c4ccc(NCC5CCOCC5)c([N+](=O)[O-])c4)c(Oc4cnc5[nH]ccc5c4)c3)CC2)=C(c2ccc(Cl)cc2)C1 [Venetoclax] + COc1cc(Nc2ncc3c(n2)-c2ccc(Cl)cc2C(c2c(F)cccc2OC)=NC3)ccc1C(=O)O [Alisertib] (first compound max 1 µM, 7x7, partner max 10 µM) | 0.0128 | 0.0202 | 0.0305 | 0.174 | 0.0056 | 0.036 | -0.0116 | 0.032 | -0.0415 | 0.121 | -0.0572 | -0.0576 | 0.0947 | 0.0758 | -0.0183 | 0.0221 | -0.0117 | -0.0226 | -0.0524 | -0.0265 |
| CC1(C)CCC(CN2CCN(c3ccc(C(=O)NS(=O)(=O)c4ccc(NCC5CCOCC5)c([N+](=O)[O-])c4)c(Oc4cnc5[nH]ccc5c4)c3)CC2)=C(c2ccc(Cl)cc2)C1 [Venetoclax] + C[C@@H]1COCCN1C2=NC(=NC(=C2)C3(CC3)[S@](=N)(=O)C)C4=C5C=CNC5=NC=C4 [AZD6738] (first compound max 1 µM, 7x7, partner max 10 µM) | -0.006 | -0.0217 | -0.0099 | -0.0224 | -0.0423 | 0.0289 | -0.0095 | 0.0118 | -0.0492 | 0.106 | -0.0137 | -0.0351 | -0.0222 | 0.0115 | -0.0508 | -0.0549 | -0.0097 | 0.0165 | -0.031 | -0.0672 |
